Experimental data as given in PubChem BioAssay AID276 (DTP/NCI, 2004).
Values joined by “and” are separate entries in the source; they are usually repeats but may differ in a detail not shown here. Equal entries are not always repeated. Inconclusive results and toxic doses are left out.

Tested on: B6C3F1 mice, Lewis lung carcinoma iv, survival T/C
Experiment: NCI In Vivo Anticancer Drug Screen. Data for tumor model Lewis Lung Carcinoma (intravenous) in B6C3F1 mice
Settings: endpoint: median survival time, higher = longer survival
Procedure, shortened: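 Transplantable tumor in mice; compound treated vs vehicle controls; read-out survival; value = treated/control (T/C).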

[1] = dose: 5.0 mg/kg/injection, schedule: Q01DX009 (ip), vehicle: saline with Tween-80
[2] = dose: 10.0 mg/kg/injection, schedule: Q01DX009 (ip), vehicle: saline with Tween-80
[3] = dose: 6.25 mg/kg/injection, schedule: Q01DX009 (ip), vehicle: saline with Tween-80
[4] = dose: 12.5 mg/kg/injection, schedule: Q01DX009 (ip), vehicle: saline with Tween-80
[5] = dose: 25.0 mg/kg/injection, schedule: Q01DX009 (ip), vehicle: saline with Tween-80
[6] = dose: 2.0 mg/kg/injection, schedule: Q01DX009 (ip), vehicle: saline
[7] = dose: 50.0 mg/kg/injection, schedule: Q01DX009 (ip), vehicle: saline with Tween-80
[8] = dose: 100.0 mg/kg/injection, schedule: Q01DX009 (ip), vehicle: saline with Tween-80

O=NN(CCF)C(=O)NC1CCCCC1
T/C (dose: 2.5 mg/kg/injection, schedule: Q01DX009 (ip), vehicle: saline with Tween-80): 109 % of control | T/C (dose: 3.12 mg/kg/injection, schedule: Q01DX009 (ip), vehicle: Klucel (hydroxypropylcellulose) (HPC)): 107 % of control | T/C [1]: 109 % of control | T/C [2]: 155 % of control | T/C (dose: 12.5 mg/kg/injection, schedule: Q01DX009 (ip), vehicle: Klucel (hydroxypropylcellulose) (HPC)): 269 % of control and 291 % of control | T/C (dose: 20.0 mg/kg/injection, schedule: Q01DX009 (ip), vehicle: saline with Tween-80): 229 % of control | T/C (dose: 25.0 mg/kg/injection, schedule: Q01DX009 (ip), vehicle: Klucel (hydroxypropylcellulose) (HPC)): 227 % of control

O=[n+]1c2ccccc2n([O-])c2ccccc21.[Cl][Ni][Cl]
T/C (dose: 1.56 mg/kg/injection, schedule: Q01DX009 (ip), vehicle: saline with Tween-80): 93 % of control | T/C (dose: 3.12 mg/kg/injection, schedule: Q01DX009 (ip), vehicle: saline with Tween-80): 93 % of control | T/C [3]: 90 % of control | T/C [4]: 97 % of control | T/C [5]: 97 % of control

Cc1cc(NCCN(C(C)C)C(C)C)nc(/N=C(\N)Nc2ccc(Cl)c(C(F)(F)F)c2)n1
T/C (dose: 1.25 mg/kg/injection, schedule: Q01DX009 (ip), vehicle: Klucel (hydroxypropylcellulose) (HPC)): 93 % of control and 95 % of control | T/C (dose: 2.5 mg/kg/injection, schedule: Q01DX009 (ip), vehicle: Klucel (hydroxypropylcellulose) (HPC)): 95 % of control and 100 % of control | T/C (dose: 5.0 mg/kg/injection, schedule: Q01DX009 (ip), vehicle: Klucel (hydroxypropylcellulose) (HPC)): 94 % of control and 96 % of control | T/C (dose: 10.0 mg/kg/injection, schedule: Q01DX009 (ip), vehicle: Klucel (hydroxypropylcellulose) (HPC)): 97 % of control and 117 % of control | T/C (dose: 20.0 mg/kg/injection, schedule: Q01DX009 (ip), vehicle: Klucel (hydroxypropylcellulose) (HPC)): 94 % of control and 112 % of control

CCCCNCCCNCCCNC(=O)c1csc(-c2csc(CCNC(=O)C(NC(=O)C(C)C(O)C(C)NC(=O)C(NC(=O)c3nc(C(CC(N)=O)NCC(N)C(N)=O)nc(N)c3C)C(OC3OC(CO)C(O)C(O)C3OC3OC(CO)C(O)C(OC(N)=O)C3O)c3cnc[nH]3)C(C)O)n2)n1 (stereo not drawn)
T/C [6]: 112 % of control | T/C (dose: 8.0 mg/kg/injection, schedule: Q01DX009 (ip), vehicle: saline): 155 % of control | T/C (dose: 16.0 mg/kg/injection, schedule: Q01DX009 (ip), vehicle: saline): 184 % of control

COc1cccc2c1C(=N)c1c(O)c3c(c(O)c1C2=O)C[C@@](O)(C(C)=O)C[C@@H]3OC1CC(N)C(O)C(C)O1 (stereo partly drawn)
T/C (dose: 1.0 mg/kg/injection, schedule: Q01DX009 (ip), vehicle: saline): 103 % of control | T/C [6]: 96 % of control | T/C (dose: 4.0 mg/kg/injection, schedule: Q01DX009 (ip), vehicle: saline): 105 % of control

CN1CCN(c2ccc([N+](=O)[O-])c3no[n+]([O-])c23)CC1
T/C [1]: 120 % of control | T/C [2]: 111 % of control

COc1cccc2c1C(=O)c1c(O)c3c(c(O)c1C2=O)C[C@@](O)(/C(C)=N\NC(=O)CO)C[C@@H]3OC1CC(N)C(O)C(C)O1 (stereo partly drawn)
T/C (dose: 6.25 mg/kg/injection, schedule: Q01DX009 (ip), vehicle: saline): 87 % of control

C/C=C/C=C1/OC(C)=C(C(C)=O)C1=O
T/C [4]: 123 % of control | T/C [5]: 108 % of control | T/C [7]: 93 % of control | T/C [8]: 103 % of control

CC(=O)ON(C(C)=O)c1ccc(C(N)=O)cc1
T/C [5]: 102 % of control | T/C [7]: 93 % of control | T/C [8]: 107 % of control | T/C (dose: 200.0 mg/kg/injection, schedule: Q01DX009 (ip), vehicle: saline with Tween-80): 99 % of control | T/C (dose: 400.0 mg/kg/injection, schedule: Q01DX009 (ip), vehicle: saline with Tween-80): 106 % of control

C=C(C)/C([O-])=N/[N+](C)(C)CC(O)CCCCCCCCCCCC (stereo not drawn)
T/C (dose: 1.56 mg/kg/injection, schedule: Q01DX001 (ip), vehicle: saline): 96 % of control | T/C (dose: 3.12 mg/kg/injection, schedule: Q01DX001 (ip), vehicle: saline): 104 % of control | T/C (dose: 6.25 mg/kg/injection, schedule: Q01DX001 (ip), vehicle: saline): 98 % of control | T/C (dose: 12.5 mg/kg/injection, schedule: Q01DX001 (ip), vehicle: saline): 109 % of control | T/C (dose: 25.0 mg/kg/injection, schedule: Q01DX001 (ip), vehicle: saline): 103 % of control and 106 % of control | T/C (dose: 50.0 mg/kg/injection, schedule: Q01DX001 (ip), vehicle: saline): 98 % of control and 100 % of control | T/C (dose: 100.0 mg/kg/injection, schedule: Q01DX001 (ip), vehicle: saline): 95 % of control | T/C (dose: 200.0 mg/kg/injection, schedule: Q01DX001 (ip), vehicle: saline): 97 % of control

C[CH2][Ge]([CH2]C)[CH2]C.C[CH2][Ge]([CH2]C)[CH2]C.C[CH2][Ge]([CH2]C)[O][Ge]([CH2]C)[CH2]C
T/C [3]: 105 % of control | T/C [4]: 106 % of control | T/C [5]: 106 % of control | T/C [7]: 101 % of control | T/C [8]: 113 % of control
